Tests used:
Format in all cases: in vivo, Kunming mice
[1] = tested on: Keap1; experiment: Keap1 gene expression in lung tissue by qRT-PCR
Method: (§1) A total of 144 SPF-grade healthy Kunming mice, aged 5-7 weeks and weighing 18-22 g, are weighed and randomly allocated into six experimental groups: control group (NS), model group (LPS), dexamethasone group (DEX, […] per kilogram abbreviated as mg/kg), genipin beta-methyl derivative low-dose group (12.5 mg/kg), genipin beta-methyl derivative medium-dose group (25 mg/kg), and genipin beta-methyl derivative high-dose group (50 mg/kg), 24 animals per group, in which 12 animals are used to take lung tissue for the detection of other indicators, and another 12 animals are used to collect BALF. […]
(§2) Samples are collected 24 hours after the animal model is established. […] Lung tissues are collected and the whole lung wet weight is measured. […] After tidying, the lungs are photographed, excess tissues such as the trachea are cleared away, and the wet weight of the whole lung is measured to calculate the lung index. • (3) The upper lobe of the left lung is fixed in 4% neutral paraformaldehyde, fixed for 24 hours, paraffin-embedded and sectioned for HE staining. • (4) The remaining lung tissues are put into centrifugal tubes separately, quickly frozen in liquid nitrogen, and then stored at −80° C. after the experiment, which is used for the detection of MDA, SOD, western blotting (WB) and reverse transcription polymerase chain reaction (RT-PCR). […]

[2] = tested on: IL-6; experiment: IL-6 mRNA in lung tissue by qRT-PCR
Method: as §1, §2

[3] = tested on: LPS-induced ALI mice; experiment: Total protein concentration in BALF by BCA; details: compared with LPS group (P<0.05)
Method: (§3) A total of 144 SPF-grade healthy Kunming mice, aged 5-7 weeks and weighing 18-22 g, are weighed and randomly allocated into six experimental groups: control group (NS), model group (LPS), dexamethasone group (DEX, […] per kilogram abbreviated as mg/kg), genipin beta-methyl derivative low-dose group (12.5 mg/kg), genipin beta-methyl derivative medium-dose group (25 mg/kg), and genipin beta-methyl derivative high-dose group (50 mg/kg), 24 animals per group, in which 12 animals are used to take lung tissue for the detection of other indicators, and another 12 animals are used to collect BALF.
All mice are gavaged with a same volume of 0.9% normal saline once a day in the NS group and the LPS group, DEX solution (0.39 mg/kg) is gavaged once a day in the DEX group, low-dose Gen-17 solution (12.5 mg/kg) is gavaged once a day in the medium-dose Gen-17 group, medium-dose Gen-17 solution (25 mg/kg) is gavaged once a day in the high-dose Gen-17 group, and high-dose Gen-17 solution (50 mg/kg) is gavaged once a day in the high-dose Gen-17 group. The dosage is converted according to the weight of the mice, and the gavage volume is 20 milliliters per kilogram (mL/kg), and the gavage is continued for 3 days. One hour after the gavage on the third day, the ALI model is established by tracheal instillation of LPS solution. The specific experimental procedures are as follows. • (1) Before the operation, the mice are anesthetized by intraperitoneal injection of 1% sodium pentobarbital (30 mg/kg) according to their body weight. • (2) Limbs of anesthetized mice are fixed with rubber bands, teeth are wired with thin threads, and neck skin is disinfected with 75% alcohol. • (3) A subcutaneous tissue is separated along a longitudinal incision in a middle of the mouse neck until a cartilage ring appeared in an exposed trachea. • (4) A microinjector is inserted into the trachea in parallel towards a proximal end for about 1 centimeter (cm). […]

[4] = tested on: HO-1; experiment: HO-1 protein in lung tissue by WB; details: Gen-17 12.5, 25, 50 mg/kg gavage, ALI mice
Method: as §1, §2

[5] = tested on: HO-1; experiment: HO-1 gene expression in lung tissue by qRT-PCR
Method: as §1, §2

[6] = tested on: IL-1β; experiment: IL-1β content in BALF by ELISA
Method: as §3
All mice are gavaged with a same volume of 0.9% normal saline once a day in the NS group and the LPS group, DEX solution (0.39 mg/kg) is gavaged once a day in the DEX group, low-dose Gen-17 solution (12.5 mg/kg) is gavaged once a day in the medium-dose Gen-17 group, medium-dose Gen-17 solution (25 mg/kg) is gavaged once a day in the high-dose Gen-17 group, and high-dose Gen-17 solution (50 mg/kg) is gavaged once a day in the high-dose Gen-17 group. The dosage is converted according to the weight of the mice, and the gavage volume is 20 milliliters per kilogram (mL/kg), and the gavage is continued for 3 days. One hour after the gavage on the third day, the ALI model is established by tracheal instillation of LPS solution. […]

[7] = tested on: LPS-induced ALI mice; experiment: Total cell count in BALF
Method: as §3
All mice are gavaged with a same volume of 0.9% normal saline once a day in the NS group and the LPS group, DEX solution (0.39 mg/kg) is gavaged once a day in the DEX group, low-dose Gen-17 solution (12.5 mg/kg) is gavaged once a day in the medium-dose Gen-17 group, medium-dose Gen-17 solution (25 mg/kg) is gavaged once a day in the high-dose Gen-17 group, and high-dose Gen-17 solution (50 mg/kg) is gavaged once a day in the high-dose Gen-17 group. The dosage is converted according to the weight of the mice, and the gavage volume is 20 milliliters per kilogram (mL/kg), and the gavage is continued for 3 days. One hour after the gavage on the third day, the ALI model is established by tracheal instillation of LPS solution. The specific experimental procedures are as follows. • (1) Before the operation, the mice are anesthetized by intraperitoneal injection of 1% sodium pentobarbital (30 mg/kg) according to their body weight. • (2) Limbs of anesthetized mice are fixed with rubber bands, teeth are wired with thin threads, and neck skin is disinfected with 75% alcohol. • (3) A subcutaneous tissue is separated along a longitudinal incision in a middle of the mouse neck until a cartilage ring appeared in an exposed trachea. • (4) A microinjector is inserted into the trachea in parallel towards a proximal end for about 1 centimeter (cm). Sterile NS is slowly dripped into the trachea of the control group, and LPS is dripped into the trachea of the other groups. • (5) After pulling out the microinjector, the mice are upright immediately, rotated and shaken evenly for 2 minutes (min), then the neck wound is sutured, and the state of the mice is observed. After the mice are awake, they are raised as usual. 2.3 Treatment of Experimental Animals and Collection of Lung Tissue Specimens
BALF is collected 24 hours after the establishment of the animal model. First, the remaining 12 mice in each group are weighed, and then BALF is extracted. The extracted BALF is used for total cell count, total protein content determination and enzyme-linked immunosorbent assay (ELISA) determination of IL-1B, IL-6 and TNF-α in BALF. The specific experimental procedures are as follows. • (1) After weighing, the mice are anesthetized by intraperitoneal injection of pentobarbital sodium according to their weight; • (2) When the tail root, hind limbs, eyelash reflex and other activities of mice disappear, and the mice breathe slowly and evenly, the limbs and teeth of mice are fixed, the neck skin of mice is disinfected with 75% alcohol, and the neck tissue is opened longitudinally, so that the tracheal cartilage ring is exposed. Tracheal puncture is performed with a 19G trocar catheter, the needle is inserted for about 1 cm, the needle core is pulled out, a 1 ml syringe is connected, and precooled normal saline (0.8 mL/time, repeat 2 times) is slowly injected. […]

[8] = low-dose Gen-17 12.5 mg/kg gavage, compared with DEX group (P<0.01)

COC(=O)C1=CO[C@@H](OC)[C@@H]2C(COC(=O)c3cccc(Br)c3)=CC[C@H]12 [Gen-17, genipin beta-methyl derivative]
expression of Keap1 gene in lung tissue ([1]; Gen-17 groups (12.5, 25, 50 mg/kg gavage) compared with DEX group (P<0.001)): significantly increased | expression of Keap1 gene in lung tissue ([1]; Gen-17 groups (12.5, 25, 50 mg/kg gavage) compared with NS group): significantly increased (P<0.001) | mRNA expression of IL-6 in lung tissue ([2]; Gen-17 (12.5, 25, 50 mg/kg gavage) compared with LPS group (P<0.001)): significantly reduce the expression | mRNA expression of IL-6 in lung tissue ([2]; low-dose Gen-17 12.5 mg/kg gavage, compared with DEX group (P<0.001)): statistical significance | total protein content in BALF ([3]; high-dose Gen-17 50 mg/kg gavage): significantly reduced | total protein content in BALF ([3]; low-dose Gen-17 12.5 mg/kg gavage): significantly reduced | total protein content in BALF ([3]; middle-dose Gen-17 25 mg/kg gavage): significantly reduced | expression of HO-1 protein in lung tissue, overall result [4]: upregulate the expression of Nrf2 and HO-1 protein | expression of HO-1 gene in lung tissue ([5]; Gen-17 compared with DEX group (P<0.001)): statistically significant in upregulating the expression of HO-1 gene | expression of HO-1 gene in lung tissue ([5]; Gen-17 group compared with NS group): significantly decreased (P<0.001) | content of IL-1β in BALF ([6]; Gen-17 groups (12.5, 25, 50 mg/kg gavage) compared with LPS group (P<0.05)): reduce the contents of inflammatory cytokines | IL-1β level in BALF [6, 8]: statistically significant reduction | total cell counts in BALF ([7]; Gen-17 groups (12.5, 25, 50 mg/kg gavage) compared with LPS group (P<0.001)): decreased significantly | total cell counts in BALF [7, 8]: significantly increased | total cell counts in BALF ([7]; low-dose Gen-17 12.5 mg/kg gavage, compared with NS group (P<0.001)): significantly increased | total cell counts in BALF ([7]; middle-dose Gen-17 25 mg/kg gavage, compared with DEX group (P<0.01)): significantly increased | total cell counts in BALF ([7]; middle-dose Gen-17 25 mg/kg gavage, compared with NS group (P<0.001)): significantly increased

From patent US12458621B1, “Application of genipin beta-methyl derivative gen-17 in preparation of drug for prevention and treatment of acute severe pneumonia” (KUNMING MEDICAL UNIVERSITY, priority 2024, dated 2025)
